Reference: patent US10233184B2, “7-substituted sulfonimidoylpurinone compounds and derivatives for the treatment and prophylaxis of virus infection” (Hoffmann-La Roche Inc., priority 2016, dated 2019)

Biological target: T1, human TLR7 (Homo sapiens, UniProt Q9NYK1)
T1 sequence (Q9NYK1 27-1049): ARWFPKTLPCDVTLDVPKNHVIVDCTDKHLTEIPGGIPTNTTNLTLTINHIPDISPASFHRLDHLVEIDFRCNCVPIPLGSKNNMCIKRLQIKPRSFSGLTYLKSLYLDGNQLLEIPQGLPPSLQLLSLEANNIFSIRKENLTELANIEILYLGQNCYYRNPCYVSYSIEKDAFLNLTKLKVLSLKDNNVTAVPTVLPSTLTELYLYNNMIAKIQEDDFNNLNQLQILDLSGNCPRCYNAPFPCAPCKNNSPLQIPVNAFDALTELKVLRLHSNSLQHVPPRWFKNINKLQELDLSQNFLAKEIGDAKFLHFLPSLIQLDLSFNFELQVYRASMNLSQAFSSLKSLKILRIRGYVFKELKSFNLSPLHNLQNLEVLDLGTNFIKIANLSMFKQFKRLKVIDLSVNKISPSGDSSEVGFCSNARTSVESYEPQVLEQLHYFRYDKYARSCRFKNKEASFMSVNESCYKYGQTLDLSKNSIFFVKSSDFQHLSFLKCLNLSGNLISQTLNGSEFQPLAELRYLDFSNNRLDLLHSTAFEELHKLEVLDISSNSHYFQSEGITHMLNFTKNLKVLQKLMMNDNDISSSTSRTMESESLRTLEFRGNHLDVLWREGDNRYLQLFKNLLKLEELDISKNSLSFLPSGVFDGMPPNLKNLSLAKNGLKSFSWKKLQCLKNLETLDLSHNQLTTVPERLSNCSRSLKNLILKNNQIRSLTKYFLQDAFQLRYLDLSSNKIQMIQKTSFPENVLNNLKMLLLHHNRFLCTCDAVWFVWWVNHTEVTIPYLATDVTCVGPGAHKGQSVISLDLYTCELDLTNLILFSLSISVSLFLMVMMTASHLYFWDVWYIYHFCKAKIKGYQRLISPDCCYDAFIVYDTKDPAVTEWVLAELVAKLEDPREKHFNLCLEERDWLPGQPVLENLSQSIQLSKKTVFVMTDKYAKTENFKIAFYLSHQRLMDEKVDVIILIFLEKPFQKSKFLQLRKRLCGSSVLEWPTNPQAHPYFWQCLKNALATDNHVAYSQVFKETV
Test: HEK293-Blue-hTLR-7 cells assay (SEAP reporter)
Format: cell-based
Details: for Ratio (EC50(prodrug)/EC50(active form)): EC50 of prodrug over EC50 of corresponding active form; for EC50: HEK293-Blue-hTLR-7 cells, SEAP reporter, 20 hrs, prodrug, read-out: HEK293-hTLR-7 EC50 (Prodrug)
Summary of the method: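 HEK293-Blue-hTLR7 cells with NF-κB/AP-1-driven SEAP reporter exposed to serially diluted compound (1% DMSO) for 20 hrs at 37° C. Supernatant SEAP measured with QUANTI-Blue after 2 hrs at 37° C, absorbance 620~655 nm; agonism expressed as EC50.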

CCCN(C)C(=O)n1c(=O)n(Cc2ccc(Cl)cc2)c2nc([S@](=N)(=O)CC)nc(N)c21 [Example 41-A, 6-Amino-9-[(4-chlorophenyl)methyl]-2-[S(R)-ethylsulfonimidoyl]-N-methyl-8-oxo-N-propyl-purine-7-carboxamide]
Ratio (EC50(prodrug)/EC50(active form)): 518.8
EC50: 44.1 µM

CCCN(C)C(=O)n1c(=O)n(Cc2ccc(Cl)cc2)c2nc([S@@](=N)(=O)CC)nc(N)c21 [Example 41-B, 6-Amino-9-[(4-chlorophenyl)methyl]-2-[S(S)-ethylsulfonimidoyl]-N-methyl-8-oxo-N-propyl-purine-7-carboxamide]
Ratio (EC50(prodrug)/EC50(active form)): 452.1
EC50: 32.1 µM

CCN(C)C(=O)n1c(=O)n(Cc2ccc(Cl)cc2)c2nc([S@@](=N)(=O)CC)nc(N)c21 [Example 42-A, 6-Amino-9-[(4-chlorophenyl)methyl]-N-ethyl-2[S(S)-ethylsulfonimidoyl]-N-methyl-8-oxo-purine-7-carboxamide]
Ratio (EC50(prodrug)/EC50(active form)): 570.4
EC50: 40.5 µM

CCCN(C)C(=O)n1c(=O)n(Cc2ccc(C)cc2)c2nc([S@](=N)(=O)CC)nc(N)c21 [Example 43-A, 6-Amino-2-[S(R)-ethylsulfonimidoyl]-N-methyl-8-oxo-N-propyl-9-(p-tolylmethyl)purine-7-carboxamide]
Ratio (EC50(prodrug)/EC50(active form)): 1000
EC50: 110 µM
